Measured values taken from PubChem BioAssay (NCI).
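Method: 48-hour compound exposure of cells in 96-well plates, five concentrations, linear interpolation of endpoints. TGI: concentration producing complete growth inhibition.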

Assays:
Experiment in all cases: inhibition of tumour cell growth, NCI panel, 48 h
[1] = tested on: SK-MEL-28 melanoma
[2] = tested on: UACC-62 melanoma
[3] = tested on: TK-10 renal
[4] = tested on: SF-539 CNS
[5] = tested on: T-47D breast
[6] = tested on: SF-295 CNS
[7] = tested on: NCI-H522 lung
[8] = tested on: HOP-92 NSCLC
[9] = tested on: K-562 leukemia
[10] = tested on: COLO 205 colon
[11] = tested on: HT29 colon
[12] = tested on: SR leukemia
[13] = tested on: MDA-N
[14] = tested on: CAKI-1 renal
[15] = tested on: SNB-19 CNS
[16] = tested on: PC-3 prostate
[17] = tested on: SF-268 CNS
[18] = tested on: M14 melanoma
[19] = tested on: UACC-257 melanoma
[20] = tested on: SK-MEL-5 melanoma

**Q.** Which TGI [1] does the source give for CCOC(=O)C1=NN(c2ccc(Cl)cc2)C2=CC(C)=NN(C)C(=S)N21 here?
**A.** > 100 µM

**Q.** And the TGI [2]?
**A.** > 100 µM

**Q.** What about the TGI [3] of the same molecule?
**A.** 62 µM

**Q.** And the TGI [4]?
**A.** 56.5 µM

**Q.** What about the TGI [5] of the same molecule?
**A.** 94.8 µM

**Q.** And the TGI [6]?
**A.** > 100 µM

**Q.** What about the TGI [7] of the same molecule?
**A.** 46.9 µM

**Q.** And the TGI [8]?
**A.** > 100 µM

**Q.** And the TGI [9]?
**A.** > 100 µM

**Q.** And the TGI [10]?
**A.** > 100 µM

**Q.** What about the TGI [11] of the same molecule?
**A.** > 100 µM

**Q.** And the TGI [12]?
**A.** > 100 µM

**Q.** And the TGI [13]?
**A.** > 100 µM

**Q.** And the TGI [14]?
**A.** 50.4 µM

**Q.** What about the TGI [15] of the same molecule?
**A.** > 100 µM

**Q.** And the TGI [16]?
**A.** > 100 µM

**Q.** What about the TGI [17] of the same molecule?
**A.** > 100 µM

**Q.** What about the TGI [18] of the same molecule?
**A.** > 100 µM

**Q.** What about the TGI [19] of the same molecule?
**A.** > 100 µM

**Q.** What about the TGI [20] of the same molecule?
**A.** > 100 µM
